# Target: HIV-1 RT (Human immunodeficiency virus type 1 group M subtype B, UniProt P04585)
# Assay: HIV Reverse Transcriptase Assay (RNA-dependent DNA polymerase activity, 3H-dCTP incorporation)
# Assay type: biochemical
# Details: 60 nM HIV-RT, tRNA-Lys3 primer/viral RNA template, 45 minutes, room temperature, 0.7% DMSO
# Protocol: Utilizing the Reverse Transcriptase (RT) Assay described below, compounds can be tested for their ability to inhibit the RNA-dependent DNA polymerase activity of HIV-1 RT. Compounds described in the Examples which appear below, were so tested.
# HIV Reverse Transcriptase Assay:
# HIV reverse transcriptase activity is assessed by following the incorporation of ^3 H-dCTP into newly synthesized DNA using the natural tRNA^Lys3 primer annealed to a viral RNA template sequence. Assays are performed in a final volume of 100 μL in 96-well plates. Briefly, assay buffer (50 mM Tris pH 7.5, 50 mM NaCl, 5 mM MgCl2), primer/template (10-60 nM), dNTPs (dATP, dGTP, dTTP; 100 nM each), and ^3 H-dCTP (180 nM) are combined, and the reaction is initiated with 60 nM HIV-RT. After 45 minutes at room temperature, the assay is quenched with 0.1 M EDTA and harvested onto a DEAE filter using a Skatron Harvester with a solution of 5% Na2 HPO4 -2% sodium pyrophosphate. The filter mats are dried and placed into a plastic bag with 10 ml of scintillant, and counted on a Wallac BetaPlate reader. Non-specific activity is determined by adding 0.1 M EDTA at the start of the assay.
# To assess the activity of compounds on HIV-RT activity, compounds are added to the assay prior to addition of enzyme. Compounds are dissolved in 14% DMSO (0.7% final), and tested at 32, 10, 3.2, 1.0, 0.32, and 0.10 μM in triplicate. % Inhibition is calculated according to the following equation: […]
row,SMILES,inhibition at 10 µM [%]
1,"Cc1nc2cnccc2n1-c1ccc(Cn2c(=O)sc3ccccc32)cc1 [Example 1, 3-[4-(2-Methyl-imidazo[4,5-c]pyridin-1-yl)-benzyl]-3H-benzothiazol-2-one]",78
2,"Cc1nc2cnccc2n1-c1ccc(Cn2c(=O)sc3cc(F)ccc32)cc1 [Example 2, 6-Fluoro-3-[4-(2-methyl-imidazo[4,5-c]pyridin-1-yl)-benzyl]-3H-benzothiazol-2-one]",76
3,"CCc1nc2cnccc2n1-c1ccc(Cn2c(=O)sc3ccccc32)cc1 [Example 3, 3-[4-(2-Ethyl-imidazo[4,5-c]pyridin-1-yl)-benzyl]-3H-benzothiazol-2-one]",72
4,"CC(C)c1nc2cnccc2n1-c1ccc(Cn2c(=O)sc3ccccc32)cc1 [Example 4, 3-[4-(2-lsopropyl-imidazo[4,5-c]pyridin-1-yl)-benzyl]-3H-benzothiazol-2-one]",23
5,"Cc1ccc2c(c1)sc(=O)n2Cc1ccc(-n2c(C)nc3cnccc32)cc1 [Example 5, 6-Methyl-3-[4-(2-methyl-imidazo[4,5-c]pyridin-1-yl)-benzyl]-3H-benzothiazol-2-one]",30
6,"COc1ccc2c(c1)sc(=O)n2Cc1ccc(-n2c(C)nc3cnccc32)cc1 [Example 6, 6-Methoxy-3-[4-(2-methyl-imidazo[4,5-c]pyridin-1-yl)-benzyl]-3H-benzothiazol-2-one]",22
7,"Cc1nc2cnccc2n1-c1ccc(Cn2c(=O)sc3cc(Cl)ccc32)cc1 [Example 7, 6-Chloro-3-[4-(2-methyl-imidazo[4,5-c]pyridin-1-yl)-benzyl]-3H-benzothiazol-2-one]",45
8,"COc1ccc2sc(=O)n(Cc3ccc(-n4c(C)nc5cnccc54)cc3)c2c1 [Example 8, 5-Methoxy-3-[4-(2-methyl-imidazo[4,5-c]pyridin-1-yl)-benzyl]-3H-benzothiazol-2-one]",41
9,"Cc1nc2cnccc2n1-c1ccc(Cn2c(=O)oc3ccccc32)cc1 [Example 13, 3-[4-(2-Methyl-imidazo[4,5-c]pyridin-1-yl)-benzyl]-3H-benzooxazol-2-one]",61
10,"Cc1nc2ccccc2n1Cc1ccc(-n2c(C)nc3cnccc32)cc1 [Example 16, 2-Methyl-1-[4-(2-methyl-benzoimidazol-1-ylmethyl)-phenyl]1H-imidazo[4,5-c]pyridine]",20
